In ChEMBL document CHEMBL1158678, “Two new mono-tetrahydrofuran ring acetogenins, annomuricin E and muricapentocin, from the leaves of Annona muricata” (J Nat Prod, 1998):
Converted amounts (≈) assume the structure as drawn.

Experiments:
MCF7 = experiment: Cytotoxicity against human MCF7 cells after 7 days by MTT assay; assay type: functional; conditions: MCF7, 168 h, read-out: ED50 (the source's name)
A549 = experiment: Cytotoxicity against human A549 cells after 7 days by MTT assay; assay type: functional; conditions: A549, 168 h, read-out: ED50 (the source's name)
PC-3 = experiment: Cytotoxicity against human PC3 cells after 7 days by MTT assay; assay type: functional; conditions: PC-3, 168 h, read-out: ED50 (the source's name)
MIA PaCa-2 = experiment: Cytotoxicity against human MIAPaCa2 cells after 7 days by MTT assay; assay type: functional; conditions: MIA PaCa-2, 168 h, read-out: ED50 (the source's name)
HT-29 = experiment: Cytotoxicity against human HT-29 cells after 7 days by MTT assay; assay type: functional; conditions: HT-29, 168 h, read-out: ED50 (the source's name)
A498 = experiment: Cytotoxicity against human A498 cells after 7 days by MTT assay; assay type: functional; conditions: A498, 168 h, read-out: ED50 (the source's name)
[1] = Toxicity against Artemia salina; assay type: organism-based; conditions: in vivo, read-out: ED50 (the source's name)

| Compound | EC50 (MCF7) | EC50 (A549) | EC50 (PC-3) | EC50 (MIA PaCa-2) | EC50 (HT-29) | EC50 (A498) | LC50 [1] |
| --- | --- | --- | --- | --- | --- | --- | --- |
| CCCCCCCCCCCC[C@@H](O)[C@H]1CC[C@H]([C@H](O)CCC[C@@H](O)[C@@H](O)CCCCC[C@@H](O)CC2=C[C@H](C)OC2=O)O1 [ANNOMURICIN E] | 1.45 µg/mL (≈ 2.37 µM) | 0.112 µg/mL (≈ 0.183 µM) | 0.146 µg/mL (≈ 0.238 µM) | 0.0242 µg/mL (≈ 0.0395 µM) | 0.0668 µg/mL (≈ 0.109 µM) | 1.41 µg/mL (≈ 2.3 µM) | 11.8 µg/mL (≈ 19.3 µM) |
| COc1cccc2c1C(=O)c1c(O)c3c(c(O)c1C2=O)C[C@@](O)(C(=O)CO)C[C@@H]3O[C@H]1C[C@H](N)[C@H](O)[C@H](C)O1 [DOXORUBICIN] | 0.124 µg/mL (≈ 0.228 µM) | 0.00294 µg/mL (≈ 0.00541 µM) | 0.0355 µg/mL (≈ 0.0653 µM) | 0.00456 µg/mL (≈ 0.00839 µM) | 0.0381 µg/mL (≈ 0.0701 µM) | 0.0158 µg/mL (≈ 0.0291 µM) |  |
| CCCCCCCCCCCC[C@@H](O)[C@H]1CC[C@H]([C@H](O)CCC(O)CCCC(O)CCC[C@@H](O)CC2=C[C@H](C)OC2=O)O1 (stereo not given in full) [MURICAPENTOCIN] | 1.9 µg/mL (≈ 3.1 µM) | 0.193 µg/mL (≈ 0.315 µM) | 0.45 µg/mL (≈ 0.734 µM) | 0.0503 µg/mL (≈ 0.0821 µM) | 0.071 µg/mL (≈ 0.116 µM) | 1.72 µg/mL (≈ 2.81 µM) | 1.86 µg/mL (≈ 3.03 µM) |
